From patent US5106407A, “Iodones and methods for antimicrobial use” (priority 1989, dated 1992)
Values after ≈ are worked out from the molar mass of the structure shown.

What was measured:
[1] = test system: Escherichia coli; experiment: minimum inhibitory concentration (MIC), agar dilution; type: cell-based; conditions: Escherichia coli, ATCC11229; ATCC 11229; nutrient agar pH 6.8; read-out: MIC
Protocol: (§1) The minimum inhibitory concentration (MIC) for the compound of Example 19, i.e., (2-nitrophenyl)-iodonium 2,2-dimethyl-4,6-dioxo-1,3-dioxan-5-ylide was determined for 9 bacteria (using nutrient agar) and 5 yeast and fungi (using malt yeast agar). A one percent solution of this test compound (i.e., the compound of Example 19) was prepared in a mixture of acetone-water. Nutrient agar was prepared at pH 6.8 using deionized water according to standard Difco procedures. Malt yeast agar was prepared by adding 3 g Bacto yeast extract and 42 g Bacto Malt agar per liter of deionized water. The agar (nutrient agar when testing with bacteria and malt yeast agar when testing with yeast and fungi) was dispensed in 30 mL aliquots into 25×200 millimeter (mm) test tubes, capped and autoclaved for 15 min at 115° C. The test tubes containing the agar were cooled in a water bath until the temperature of the agar was 48° C. and then an appropriate amount of the one percent solution of the test compound was added (except in the controls where no test compound was added with the acetone-water) to the respective test tubes so that final concentrations of 500, 250, 100, 50, 25, 10, 5, 2.5, 1.0 and 0 parts per million (ppm) of the test compound in the agar were obtained. The agar solutions were each mixed and poured into individual petri plates so that each petri plate contained agar having a known concentration of test compound dispersed therein. After drying for 24 hr, the petri plates were inoculated with bacteria when the petri plates contained nutrient broth agar or with fungi and yeast when the petri plates contained malt yeast agar.
(§2) The inoculation with bacteria was accomplished using the following procedure. Twenty-four hr cultures of each of the bacteria were prepared by incubating the respective bacteria in tubes containing nutrient broth for 24 hr at 30° C. in a shaker. Dilutions of each of the 24 hr cultures were made so that 9 separate suspensions (one for each of the 9 test bacteria) were made, each containing about 10^8 colony forming units (CFU) per mL of suspension of a particular bacteria. Aliquots of 0.3 mL of each of the above suspensions were used to fill individual wells of a Steer's Replicator. For each microbial suspension, 0.3 mL was used to fill 3 wells (i.e., 3 wells of 0.3 mL each) so that for the 9 different bacteria 27 wells were filled. The Steer's Replicator was then used to inoculate the petri plates.
(§3) The petri plates were incubated at 30° C. for 48 hr and then read to determine if the test compound (i.e., the compound of Example 19) which was incorporated into the agar prevented growth of the respective bacteria. The minimum inhibitory concentration (MIC) for each bacteria was defined as the lowest concentration of the test compound which prevented growth of that bacteria.
(§4) In a similar procedure, the MIC (in ppm) of the compound of Example 11 (i.e., (2-nitrophenyl)-iodonium 2,6-dioxocyclohexylide) for various organisms was determined at an acid pH (about 6.8) and at an alkaline pH (about 8.2).

[2] = test system: Bacillus subtilis; experiment: as above; type: cell-based; conditions: Bacillus subtilis, ATCC8473; ATCC 8473; nutrient agar pH 6.8; read-out: MIC
Protocol: as §1, §2, §3, §4
(§5) Using similar procedures, the MIC's (in ppm) of various compounds of Formula I and/or Formula II were determined for the organisms Enterobacter aerogenes and Bacillus subtilis in a neutral solution (pH about 6.8) and in an alkaline medium (pH about 8.2).

[3] = test system: Enterobacter aerogenes; experiment: as above; type: cell-based; conditions: Klebsiella aerogenes, ATCC13048; ATCC 13048; nutrient agar pH 6.8; read-out: MIC
Protocol: as §1, §2, §3, §4, §5

[4] = test system: bacteria listed in Table I, Klebsiella oxytoca, Enterobacter gergoviae, Pseudomonas putida #1, and Pseudomonas putida #2; experiment: hand creme preservation test
Protocol: Fifty gram aliquots of the latex were placed in sterile bottles and one hundred gram aliquots of the diluted cutting oil were placed in 250-mL Erlenmeyer flasks. An appropriate amount of a fresh 1 percent stock solution of (2-nitrophenyl)-iodonium 2,2-dimethyl-4,6-dioxo-1,3-dioxan-5-ylide in acetone-water was added to achieve the desired final concentrations (see Tables 5 and 6). A small portion of the respective latex or cutting oil preparation was then streaked onto Tryptic Soy Agar (TSA) petri plates using sterile cotton swabs to determine whether the preparations were sterile. If the particular preparation was sterile, it was then inoculated with an appropriate volume (0.1 mL for the latex and 0.2 mL for the cutting oil) of a mixture of equal aliquots of 24 hr cultures of each of the bacterial organisms listed in Table 1 (not the fungi and yeast). The latex samples were incubated at 30° C. and the cutting oils were agitated on a rotary shaker at room temperature. After 24 hr, all samples were again streaked on TSA. All plates were then incubated at 30° C. for 48 hr and then rated 1 to 10 according to the growth rating system described in Table 4.
The results from this first set of streaks after inoculation are listed in the columns labeled streak number 1 in Tables 5 and 6. Samples with a rating of 3 or less from streak number 1 were reinoculated as described for the first inoculation above. Samples with a rating of 4 or greater were not reinoculated. After another 24 hr all samples were again restreaked on TSA agar. The results from these second streaks were labeled streak number 2 in Tables 5 and 6. Samples were reinoculated and restreaked in this fashion for a maximum of 10 streaks. Any samples with two streaks in a row with a ten rating were not restreaked again.
The ingredients of the hand creme, hand lotion, and protein shampoo are listed in Tables 7, 8 and 9, respectively. In the cosmetic preservative procedures, the stock solution of (2-nitrophenyl)-iodonium 2,2-dimethyl-4,6-dioxo-1,3-dioxan-5-ylide) was made in dimethylformamide (DMF)/water solution. In addition to the bacteria listed in Table I, the following bacteria were also included in the inocula: Klebsiella oxytoca, Enterobacter gergoviae, Pseudomonas putida #1, and Pseudomonas putida #2.

[5] = test system: Selenastrum capricornutum; experiment: algaecide test, inhibition of growth; type: cell-based; conditions: 96 hr incubation, read-out: growth of the algae, Percent of Control
Protocol: Using a Coulter Counter, the growth of this algea was measured after 96 hr incubation with various levels of biocide, i.e., (2-nitrophenyl)-iodonium 2,2-dimethyl-4,6-dioxo-1,3-dioxan-5-ylide.

What does the source list for `CC1(C)OC(=O)[C-]([I+]c2ccccc2[N+](=O)[O-])C(=O)O1` [Example 19, (2-Nitrophenyl)-iodonium 2,2-dimethyl-4,6-dioxo-1,3-dioxan-5-ylide]?
MIC [1]: ≤ 1 µg/mL; MIC [2]: ≤ 1 µg/mL; MIC [3]: 1 µg/mL (≈ 2.56 µM); growth rating ([4]; 10 ppm, streak 1): 1 (0); growth rating ([4]; 10 ppm, streak 2): 1 (0); growth rating ([4]; 10 ppm, streak 3): 1 (0); growth rating ([4]; 10 ppm, streak 4): 1 (0); growth rating ([4]; 10 ppm, streak 5): 1 (0); growth rating ([4]; 10 ppm, streak 6): 5 (26-50); growth rating ([4]; 10 ppm, streak 7): 1 (0); growth rating ([4]; 10 ppm, streak 8): 8 (210-300); growth rating ([4]; 10 ppm, streak 9): 1 (0); growth rating ([4]; 10 ppm, streak 10): 7 (101-200); growth rating ([4]; 50 ppm, streak 1): 1 (0); growth rating ([4]; 50 ppm, streak 2): 1 (0); growth rating ([4]; 50 ppm, streak 3): 1 (0); growth rating ([4]; 50 ppm, streak 4): 1 (0); growth rating ([4]; 50 ppm, streak 5): 1 (0); growth rating ([4]; 50 ppm, streak 6): 1 (0); growth rating ([4]; 50 ppm, streak 7): 1 (0); growth rating ([4]; 50 ppm, streak 8): 1 (0); growth rating ([4]; 50 ppm, streak 9): 1 (0); growth rating ([4]; 50 ppm, streak 10): 7 (101-200); growth rating ([4]; 100 ppm, streak 1): 1 (0); growth rating ([4]; 100 ppm, streak 2): 1 (0); growth rating ([4]; 100 ppm, streak 3): 1 (0); growth rating ([4]; 100 ppm, streak 4): 1 (0); growth rating ([4]; 100 ppm, streak 5): 1 (0); growth rating ([4]; 100 ppm, streak 6): 1 (0); growth rating ([4]; 100 ppm, streak 7): 1 (0); growth rating ([4]; 100 ppm, streak 8): 1 (0); growth rating ([4]; 100 ppm, streak 9): 4 (11-25); growth rating ([4]; 100 ppm, streak 10): 7 (101-200); activity at 0.01 ppm ([5]; 0.01 ppm): 77%; activity at 0.1 ppm ([5]; 0.1 ppm): 2.4%; activity at 1 ppm ([5]; 1.0 ppm): 0.65%; activity at 10 ppm ([5]; 10 ppm): 0.59%; activity at 32 ppm ([5]; 32 ppm): 0.53%
